Measured values from patent US20110008279A1, “Methods and Compositions Relating to Adhesins as Adjuvants” (priority 2005, published 2011).
Entries after “also recorded” stand apart in the source; their conditions may differ.

Assays:
human monocytes [1] = experiment: Soluble mediator secretion by monocytes after 3 and 7 culture days, re-stimulated with LPS; format: cell-based
Protocol: The secretion of the main immune mediators by human monocytes, after 3 and 7 culture days following stimulation with NadAΔ351-405 or LPS, was tested with a Bioplex immune array after 24 hours incubation with LPS. Analysis was performed to test pro-inflammatory cytokine TNFα and IL6, regulatory cytokine IL-10 and IL-12(p70) and chemokine IL-8, MCP-1, MIP1-α, RANTES and […] secretion.

[2] = system: alternative pathway in the complement system; experiment: Bactericidal assay, complement alternative pathway (NHS, Mg2+/EGTA, E. coli-pET); format: biochemical, human; settings: 3 μM, control E. coli-pET
Protocol: Complement activation by the alternative pathway was also investigated. […] The susceptibility to complement-mediated lysis was determined by incubating E. coli-NadA and E. coli-pET with 0-75% NHS at 37° C. for 15 min under agitation. The number of surviving bacterial cells was measured by serial agar plating and colony counting.

monocytes [3] = experiment: Apoptosis and survival of monocytes (caspase-3 assay, MTT assay); format: cell-based, human
Protocol: A) Caspase-3 assay, B) MTT assay.
The survival effect of NadA on monocytes was investigated. […] Apoptosis was not increased after a 40 hour exposure to NadAΔ351-405 or LPS. […] NadA survival effect was compared with the action of LPS or medium alone.

human macrophages = experiment: Morphology of macrophages (light microscopy); format: cell-based
Protocol: DCs cultured for 5 days in 6-well plates (Costar) were treated with recombinant human IFN-γ (1000 U/ml) for 18 h before NadA (1.5 μM) or LPS (1 μg/ml) stimulation for 4 h. Control cultures were untreated cells or treated with IFN-γ alone.
The same experiment was also carried out using macrophages.

mo-DCs = experiment: Cytokine and chemokine secretion by mo-DCs (Bio-Plex, ELISA); format: cell-based, human; settings: for IL-12 released on co-stimulation with R-848: NadA 1.5 μM + R-848 1 μM
Protocol: Reagents used were tested for low endotoxin contamination using the Limulus amoebocyte assay (Sigma). Dendritic cells were generated from human peripheral blood mononuclear cells (PBMC) as described previously. In brief, PBMC were isolated from buffy coats of healthy donors by Ficoll-Paque Plus density gradient centrifugation (Amersham Pharmacia Biotech AB). Separate monocyte and T-cell fractions were obtained from PBMCs by Percoll density gradient centrifugation (Amersham Pharmacia Biotech AB). Residual T and B cells were removed from monocyte fraction by plastic adherence of 3×10^6 cells per well in 6-well plates (Costar) resulting in CD14^+ monocyte populations of >95% purity (determined by flow cytometry). DC were obtained by 6-d culture adherent monocytes in medium with 20 ng/ml IL-4 (5×10^6 units/mg, Peprotech) and 50 ng/ml GM-CSF (1×10^7 units/mg, Peprotech). Cytokines were added again on day 4 in RPMI-1640 medium supplemented with 10% FBS. Following this procedure more than 90% cells belonged to the immature DC phenotype (CD1a^+, HLADRlow, CD14^−, CD83^−, CD86^low, CD80^low). On day 5 cells were treated with nothing or with recombinant human IFN-γ (1000 U/ml) for 18 h before stimulation with NadA (0.0375-5 μM) or LPS (1 μg/ml). After 24 h cells were harvested and analysed. Culture supernatants were collected frozen in liquid nitrogen and conserved at −80° C. for cytokine analysis.
The antibody pairs used, directed against different non-competing epitopes of a given cytokine, were purchased from BioRad. Calibration curves from recombinant cytokine standard were prepared with four-fold dilution steps in RPMI-1640 medium containing 10% FBS. Assays were carried out in 96-well sterile pre-wetted filter plates at room temperature and protected from light. A mixture containing 5000 microspheres per cytokine was incubated together with standard or sample in a final volume of 50 μl for 30 min, under continuous shaking (300 rpm). After three washes by vacuum filtration with Bio-Plex washing buffer a cocktail of biotinylated antibodies diluted in Bio-Plex detection antibody diluent was added (25 μl to each well). After a 30 minutes incubation and washing, Streptavidin-PE diluted in Bio-Plex Assay buffer was added (50 μl per well). At the end of 10 minutes incubation under continuous shaking and after washing the fluorescence intensity of the beads was measured in a final volume of 125 μl of Bio-Plex assay buffer. Data analysis was done with Bio-Plex Manager software using a five-parametric-curve fitting. The detection limits were […].
IL12(p40) was measured by capture enzyme-linked immunosorbent assay (ELISA) with antibody pairs and cytokine standard purchased from Bender MedSystems. The concentrations of IL12(p40) in the cell-free supernatants were determined with ELISA kits according to the manufacturer's instructions. The detection limit of the assays was […].

monocytes [4] = experiment: NadA binding to monocytes; set-up: species or system human
Protocol: The graphs plot the mean fluorescence intensities (MFI) ±SD measured in monocytes that have been incubated with NadAΔ351-405-Alexa, at different concentrations (A), or with 100 nM NadAΔ351-405-Alexa in presence of increasing concentrations of unlabelled protein (B), for 3 hours at 37° C. or 0° C. The reported data are the average of three independent experiments repeated in triplicate.
The dose-dependent preferential association of NadA to CD14^+ monocytes was also confirmed by MFI analysis. Competition using non-labelled ligand ascertained whether NadA binding was specific (FIG. 12). […] Based on the molecular weight of the NadA monomer, this value is in fact ˜1 μM, since the recombinant protein used in the experiment is a homo-trimer.

human monocytes [5] = experiment: Long-term differentiation of monocytes, surface markers; format: cell-based; settings: culture up to 7 days
Protocol: In order to evaluate the possible long-term, differentiation effect of NadA, adherent monocytes were treated with medium alone, NadAΔ351-405 or E. coli LPS and cells were cultured for seven days. At day 4 the agonists were added again to ensure a constant stimulation. Cell morphology was monitored by light microscopy after 1, 2, 3 and 7 days. […] NadAΔ351-405 thus induces both alteration cell morphology and distribution, this is a good indicator of monocyte activation and differentiation.
The long-term, differentiation effect of NadAΔ351-405 on monocytes was further investigated by measuring the expression of the antigen presentation marker MHC-II, co-stimulatory molecules CD80 and CD86 and cell-specific molecules: CD14 (monocyte), CD16 (macrophage) and CD1a (Dendritic cell).

[6] = after IFN-γ priming, 24 hours, NadAΔ351-405 1 μM

Substance: NadAΔ351-405
- IL-6 production (human monocytes [1]; after 3 days of culture, re-stimulated with LPS): greater production of IL-6 compared to LPS-treated cells
- IL-10 production (human monocytes [1]; cultured cells re-stimulated with LPS): able to induce IL-10 production
- effect on the alternative pathway [2]: partially inhibit
- apoptotic effect compared with medium-treated monocytes (monocytes [3]): four times less
- apoptotic effect compared with the amount induced by LPS (monocytes [3]): two times less
- cell clustering compared to LPS treatment (human macrophages): reduced clustering
- IL-12 released on co-stimulation with R-848 (mo-DCs; after IFN-γ priming): 45 ng/mL
- IL-12 released on co-stimulation with R-848 (mo-DCs; no IFN-γ priming): 2 ng/mL
- increase of IL-12 release by IFN-γ priming (mo-DCs; NadA + R-848): 20 fold
- IL-12p70 secretion, dose response (mo-DCs; absence of IFN-γ priming, up to 5 μM NadA): undetected
- IL12-p40 maximal secretion relative to LPS (mo-DCs; after IFN-γ priming): ~2%
- IL-12p70 secretion level relative to LPS (mo-DCs; after IFN-γ priming): < 2%
- IL-12p70 secretion, dose response (mo-DCs; after IFN-γ priming): reached a plateau below 1 μM NadA
- IL-6 production relative to maximal LPS production (mo-DCs; [6]): ~24%
- TNFα production relative to maximal LPS production (mo-DCs; [6]): ~24%
- NadA concentration at which IL-6, TNFα and IL-8 were evident (mo-DCs; non-primed cells): higher than 1 μM
- IL-8 secretion relative to that induced by LPS (mo-DCs; with and without IFN-γ priming): ~24%
- IL-10 production (mo-DCs; with or without IFN-γ priming, up to 5 μM NadA): Under no condition in this example was NadA able to induce IL-10 production; also recorded: undetectable
- decrease of the signal associated to monocytes by excess non-labelled NadA (monocytes [4]; 5 uM non-labelled, 125 nM Alexa-NadA, 37° C., BafA1): −50%
- affinity (Kd) of association to monocyte (monocytes [4]; NadA-I125 conjugate, Scatchard Plot): ~3 µM
- Kd of association to monocyte, value for the homo-trimer (monocytes [4]; corrected because the recombinant protein is a homo-trimer): ~1 µM
- CD1a expression (human monocytes [5]): not increased
- CD14 expression (human monocytes [5]): steadily increased on days two and three
- CD16 expression (human monocytes [5]): increased more intensely than in the control cells in the first three days
- CD80 expression (human monocytes [5]): not over-expressed
- CD86 expression (human monocytes [5]): increased more intensely than in the control cells in the first three days
- HLA-DR surface expression (human monocytes [5]): reached a maximal expression level on day three
